Assay results published in patent US11236086B2, “Substituted pyrrolopyridines as inhibitors of activin receptor-like kinase” (BLUEPRINT MEDICINES CORPORATION, priority 2017, dated 2022).

Columns and labels:
[1] = molecular target: T1, ALK2R206H (mutant ALK2, N-terminally tagged with GST) (Homo sapiens, UniProt Q04771, R206H); assay: ALK binding assay (LANTHASCREEN TR-FRET competitive binding, displacement of Kinase Tracer 178); settings: read-out: Binding Assay (IC50 class)
T1 construct: purchased Carna Bioscience or ThermoFisher 09-148 or PV6232
T1 sequence (Q04771 21-509 R206H): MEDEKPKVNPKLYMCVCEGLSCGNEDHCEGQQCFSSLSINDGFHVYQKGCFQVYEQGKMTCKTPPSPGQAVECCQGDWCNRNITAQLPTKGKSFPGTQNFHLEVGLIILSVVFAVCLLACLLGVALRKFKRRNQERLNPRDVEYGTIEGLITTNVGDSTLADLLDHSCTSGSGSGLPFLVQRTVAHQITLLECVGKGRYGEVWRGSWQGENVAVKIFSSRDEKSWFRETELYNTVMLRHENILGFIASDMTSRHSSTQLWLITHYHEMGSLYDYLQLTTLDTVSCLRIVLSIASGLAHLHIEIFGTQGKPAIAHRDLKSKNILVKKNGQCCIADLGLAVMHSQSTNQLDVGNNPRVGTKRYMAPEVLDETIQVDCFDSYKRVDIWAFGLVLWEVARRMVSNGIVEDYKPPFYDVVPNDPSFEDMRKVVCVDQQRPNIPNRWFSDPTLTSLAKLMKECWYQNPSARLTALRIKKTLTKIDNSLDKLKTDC
Procedure, shortened: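 GST-tagged ALK2 R206H (2-5 nM) mixed with Eu-anti-GST antibody (4-10 nM), Kinase Tracer 178 (50 nM, near its Kd) and compound titration (1% DMSO) in Kinase Buffer A, 30 min at room temperature. Tracer displacement read as TR-FRET ratio, normalized to controls; IC50 from 4-parameter fit.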

human ALK2 R206H = molecular target: T2, human ALK2 R206H (Homo sapiens, UniProt Q04771, R206H); assay: Cell-based ALK2-R206H cell activity assay (Smad1-Ser463/Ser465 phosphorylation by AlphaLISA in HEK293-ALK2-R206H cells); settings: phospho-Smad1 AlphaLISA, read-out: Cell Line (Cell Assay, IC50 class)
T2 construct: expressed in transfected cells; host or cells: HEK293 (ATCC CRL1573), lentivirus transduction, blasticidin selection
T2 sequence (Q04771 21-509 R206H): T1 sequence (Q04771 21-509 R206H)
Experimental: Example 11. Cell-Based ALK2-R206H Cell Activity Assay
A HEK293 (ATCC, Cat No. CRL1573) based stable cell line expressing human ALK2 R206H cDNA (synthesized by GeneScript, Piscataway, N.J.) and a FLAG tag at the C-terminus was generated by lentivirus transduction and subsequent blasticidin (Life Technologies, Cat No. A1113902) selection at 10 μg/ml for >2 wks. This cell line was named HEK293-ALK2-R206H.
B. Measurement of Smad1-Ser463/Ser465 Phosphorylation by AlphaLISA
HEK293-ALK2-R206H cells were grown, harvested, and then resuspended in serum-free, phenol red-free DMEM high glucose media (Life Technologies, Cat No. 31053). The media also contained 50 units/ml penicillin and 50 μg/ml streptomycin (Life Technologies, Cat. No. 15070-063). HEK293-ALK2-R206H cells were then plated in white opaque 384-wells microplates (2×10^4/well) (OptiPlate-384, PerkinElmer, Waltham, Mass., Cat No. 6007299) overnight (>16h) at 37° C. 5% CO2 for use in the assay.
Test compounds were first diluted to 4 mM or 0.4 mM and then serially diluted 3-fold into 10 different concentrations using DMSO. Each concentration of compound was further diluted 40-fold with phenol red-free DMEM (Life Technologies, Cat No. 31053). 2 μl of the diluted compounds were then dispensed into the HEK293-ALK2-R206H cell-containing wells of the microplates in duplicates. In this way, each compound was tested in 10 doses (3-fold serial dilution with the top concentration being 10 μM or 1 μM). Liquid handling was achieved using a Bravo Automated Liquid Handling Platform (Agilent Technologies). DMSO without compound was used as a negative control. The positive control was 1 μM LDN193189, a known bone morphogenetic protein (BMP inhibitor).
After 2-3 hours of incubation with test compound or control, the cells were lysed and signal was developed using ALPHASCREEN® SUREFIRE® SMAD1 (p-Ser463/465) cellular kinase assay kit (PerkinElmer, Cat No. TGRSM1S10K) following the manufacturer's recommended protocol. The microplates were read using Perkin Elmer ENVISION® plate reader (emission […]). The signal reflected the level of phospho-Ser/463/465-Smad1 in the lysate. The raw data were plotted using the DMSO negative and LDN193189 positive controls as the 0% and 100% inhibition, respectively. The 10-point dose response curve was used to calculate the IC50 values.
The results of this assay are shown in Table 3 in the column labeled “Cell Assay” wherein “A” represents an IC50 of less than or equal to 100 nM; “B” an IC50 of greater than 100 nM and less than or equal to 500 nM; “C” an IC50 of greater than 500 nM. Blank values in the table indicate that the particular compound was not tested in this assay.

| Compound | IC50 [1] [nM] | IC50 (human ALK2 R206H) [nM] |
| --- | --- | --- |
| CCCOC(=O)N1CCN(c2ccnc3[nH]c(-c4cnn(C)c4)c(C#N)c23)CC1 [Compound 136] | ≤ 10 | ≤ 100 |
| CC(C)OC(=O)N1CCN(c2ccnc3[nH]c(-c4cnn(C)c4)c(C#N)c23)CC1 [Compound 137] | ≤ 10 | ≤ 100 |
| Cc1nc(-c2cc3c(N4CCN(C(=O)OC5CCC5)CC4)ccnc3[nH]2)cn1C [Compound 139] | ≤ 10 | ≤ 100 |
| Cc1c(-c2cnn(C)c2)[nH]c2nccc(N3CCN(C(=O)OC4CCC4)CC3)c12 [Compound 140] | ≤ 10 | ≤ 100 |
| Cn1cc(-c2cc3c(N4CCN(C(=O)C5CCOCC5)CC4)ccnc3[nH]2)cn1 [Compound 144] | ≤ 10 | > 500 |
| CCOC(=O)N1CCN(c2ccnc3[nH]c(-c4cnn(C5COC5)c4)cc23)CC1 [Compound 145] | ≤ 10 | ≤ 100 |
| CCn1cnc(-c2cc3c(N4CCN(C(=O)OC5COC5)CC4)ccnc3[nH]2)c1 [Compound 146] | ≤ 10 | ≤ 100 |
| Cc1nc(-c2cc3c(N4CCN(C(=O)OC5COC5)CC4)ccnc3[nH]2)cn1C [Compound 147] | ≤ 10 | ≤ 100 |
| Cc1c(-c2cnn(C)c2)[nH]c2nccc(N3CCN(C(=O)OC4COC4)CC3)c12 [Compound 148] | ≤ 10 | 100 to 500 |
| Cn1cc(-c2cc3c(N4CCN(C(=O)O[C@H]5C[C@@H](O)C5)CC4)ccnc3[nH]2)cn1 [Compound 149] | ≤ 10 | 100 to 500 |
| Cn1cc(-c2cc3c(N4CCN(C(=O)O[C@H]5CCOC5)CC4)ccnc3[nH]2)cn1 [Compound 150] | ≤ 10 | 100 to 500 |
| Cc1nn(C)cc1-c1cc2c(N3CCN(C(=O)OC4COC4)CC3)ccnc2[nH]1 [Compound 151] | ≤ 10 | 100 to 500 |
| Cn1cc(-c2cc3c(N4CCN(C(=O)OC5(C)COC5)CC4)ccnc3[nH]2)cn1 [Compound 152] | ≤ 10 | 100 to 500 |
| Cn1cc(-c2cc3c(N4CCN(C(=O)OCC5COC5)CC4)ccnc3[nH]2)cn1 [Compound 153] | ≤ 10 | 100 to 500 |
| CC1OCC1OC(=O)N1CCN(c2ccnc3[nH]c(-c4cnn(C)c4)cc23)CC1 (stereo not drawn) [Compound 155] | ≤ 10 | > 500 |
| Cc1nc(-c2cc3c(N4CCN(C(=O)OC5CCC5)CC4)ccnc3[nH]2)cs1 [Compound 159] | ≤ 10 | ≤ 100 |
| Cn1cnc(-c2cc3c(N4CCN(C(=O)O[C@H]5C[C@@H](F)C5)CC4)ccnc3[nH]2)c1 [Compound 160] | ≤ 10 | ≤ 100 |
| Cn1cc(-c2cc3c(N4CCN(C(=O)O[C@H]5C[C@@H](F)C5)CC4)ccnc3[nH]2)cn1 [Compound 161] | ≤ 10 | ≤ 100 |
| Cn1cc(-c2cc3c(N4CCN(C(=O)O[C@H]5C[C@H](F)C5)CC4)ccnc3[nH]2)cn1 [Compound 162] | ≤ 10 | ≤ 100 |
| Cc1csc(-c2cc3c(N4CCN(C(=O)OC5COC5)CC4)ccnc3[nH]2)c1 [Compound 167] | ≤ 10 | ≤ 100 |
| Cc1cc(-c2cc3c(N4CCN(C(=O)OC5COC5)CC4)ccnc3[nH]2)cs1 [Compound 169] | ≤ 10 | ≤ 100 |
| Cc1nc(-c2cc3c(N4CCN(C(=O)OC5COC5)CC4)ccnc3[nH]2)cs1 [Compound 170] | ≤ 10 | ≤ 100 |
| Cc1cc(-c2cc3c(N4CCN(C(=O)OC5COC5)CC4)ccnc3[nH]2)sn1 [Compound 171] | ≤ 10 | 100 to 500 |

| Compound | IC50 [1] [nM] | IC50 (human ALK2 R206H) [nM] |
| --- | --- | --- |
| Cc1csc(-c2cc3c(N4CCN(C(=O)OC5COC5)CC4)ccnc3[nH]2)n1 [Compound 173] | ≤ 10 | 100 to 500 |
| Cc1cnc(-c2cc3c(N4CCN(C(=O)OC5COC5)CC4)ccnc3[nH]2)s1 [Compound 174] | ≤ 10 | 100 to 500 |
| Cc1ncsc1-c1cc2c(N3CCN(C(=O)OC4COC4)CC3)ccnc2[nH]1 [Compound 175] | ≤ 10 | 100 to 500 |
| CCOC(=O)N1CCN(c2ccnc3[nH]c(-c4ncc(C(C)C)s4)cc23)CC1 [Compound 177] | ≤ 10 | ≤ 100 |
| Cn1cc(-c2[nH]c3nccc(N4CCN(C(=O)OC5COC5)CC4)c3c2F)cn1 [Compound 178] | ≤ 10 | 100 to 500 |
| Cn1cc(-c2cc3c(N4CCN(C(=O)OC5COC5)CC4)ccnc3[nH]2)c(F)n1 [Compound 179] | ≤ 10 | 100 to 500 |
| Cn1cc(-c2cc3c(N4CCN(C(=O)C5CC(F)(F)C5)CC4)ccnc3[nH]2)cn1 [Compound 180] | ≤ 10 | 100 to 500 |
| NC1(c2ccc(-c3cc4c(N5CCN(C(=O)C6CC6)CC5)ccnc4[nH]3)cc2)CC1 [Compound 183] | ≤ 10 | ≤ 100 |
| CC(C)(C)c1ccc(-c2cc3c(N4CCN(C(=O)C5CC5)CC4)ccnc3[nH]2)cc1 [Compound 185] | ≤ 10 | 100 to 500 |
| CC(C)OC(=O)N1CCN(c2ccnc3[nH]c(-c4cnn(C)c4)c(Cl)c23)CC1 [Compound 186] | ≤ 10 | 100 to 500 |
| CCCOC(=O)N1CCN(c2ccnc3[nH]c(-c4cnn(C)c4)c(Cl)c23)CC1 [Compound 187] | ≤ 10 | ≤ 100 |
| N#Cc1ccc(-c2cc3c(N4CCN(C(=O)OC5COC5)CC4)ccnc3[nH]2)cc1 [Compound 188] | ≤ 10 | ≤ 100 |
| Cc1nc(-c2cc3c(N4CCN(C(=O)O[C@@H](C)CF)CC4)ccnc3[nH]2)cs1 [Compound 189] | ≤ 10 | ≤ 100 |
| Cc1nc(-c2cc3c(N4CCN(C(=O)OCC(F)F)CC4)ccnc3[nH]2)cn1C [Compound 190] | ≤ 10 | ≤ 100 |
| CCOC(=O)N1CCN(c2ccnc3[nH]c(-c4cnn(C)c4C(F)F)cc23)CC1 [Compound 191] | ≤ 10 | 100 to 500 |
| N#Cc1ccc(-c2cc3c(N4CCN(C(=O)OC5COC5)CC4)ccnc3[nH]2)nc1 [Compound 192] | ≤ 10 | 100 to 500 |
| CC(C)Oc1ccc(-c2cc3c(N4CCN(C(=O)C5CC5)CC4)ccnc3[nH]2)cc1 [Compound 194] | ≤ 10 | ≤ 100 |
| CC(C)(O)c1ccc(-c2cc3c(N4CCN(C(=O)C5CC5)CC4)ccnc3[nH]2)cc1 [Compound 195] | ≤ 10 | ≤ 100 |
| O=C(C1CC1)N1CCN(c2ccnc3[nH]c(-c4cnn(C5CCCC5)c4)cc23)CC1 [Compound 197] | ≤ 10 | ≤ 100 |
| N#Cc1cnc(-c2cc3c(N4CCN(C(=O)OC5COC5)CC4)ccnc3[nH]2)nc1 [Compound 198] | ≤ 10 | 100 to 500 |
| Cn1cnc(-c2[nH]c3nccc(N4CCN(C(=O)OC5CCC5)CC4)c3c2C#N)c1 [Compound 199] | ≤ 10 | ≤ 100 |
| Cn1cc(-c2[nH]c3nccc(N4CCN(C(=O)OC5CCC5)CC4)c3c2C#N)cn1 [Compound 200] | ≤ 10 | ≤ 100 |
